Results: ChEMBL document CHEMBL3351878, “Carbonic Anhydrase Inhibition with Benzenesulfonamides and Tetrafluorobenzenesulfonamides Obtained via Click Chemistry” (ACS Med Chem Lett, 2014)

Tests used:
Carbonic anhydrase 9 = Carbonic anhydrase 9 (Homo sapiens, UniProt Q16790)
Carbonic anhydrase 1 = Carbonic anhydrase 1 (Homo sapiens, UniProt P00915); test: Inhibition of recombinant human carbonic anhydrase 1 preincubated for 15 mins by stopped-flow CO2 hydrase Assay
Carbonic anhydrase 12 = Carbonic anhydrase 12 (Homo sapiens, UniProt O43570)
Sequence of Carbonic anhydrase 12 (O43570 whole entry): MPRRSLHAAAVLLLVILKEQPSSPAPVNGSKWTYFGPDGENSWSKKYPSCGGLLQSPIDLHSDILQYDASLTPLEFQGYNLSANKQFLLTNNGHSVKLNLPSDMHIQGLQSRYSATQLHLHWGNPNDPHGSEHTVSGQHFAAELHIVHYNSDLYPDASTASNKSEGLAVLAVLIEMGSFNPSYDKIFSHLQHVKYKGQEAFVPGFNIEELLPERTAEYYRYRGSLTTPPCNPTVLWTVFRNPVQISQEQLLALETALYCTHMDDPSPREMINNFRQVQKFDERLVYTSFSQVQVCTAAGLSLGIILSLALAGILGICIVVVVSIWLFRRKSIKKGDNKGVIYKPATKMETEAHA

Sequence of Carbonic anhydrase 1 (P00915 whole entry): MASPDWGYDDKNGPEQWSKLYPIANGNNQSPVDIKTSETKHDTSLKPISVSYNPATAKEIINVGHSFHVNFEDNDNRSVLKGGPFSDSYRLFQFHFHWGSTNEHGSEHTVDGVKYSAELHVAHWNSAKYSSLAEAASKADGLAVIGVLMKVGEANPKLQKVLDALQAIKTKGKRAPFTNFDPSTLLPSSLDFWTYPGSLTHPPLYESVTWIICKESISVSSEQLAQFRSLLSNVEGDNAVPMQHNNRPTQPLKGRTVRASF

With `CCCCCc1ccc(-c2cn(-c3c(F)c(F)c(S(N)(=O)=O)c(F)c3F)nn2)cc1` the Ki (Carbonic anhydrase 9) was 38.9 nM.

`NS(=O)(=O)c1ccc(-n2cc(CCCCCl)nn2)cc1` was tested, and the Ki (Carbonic anhydrase 9) was 5.4 nM.

With `NS(=O)(=O)c1ccc(-n2cc(-c3ccccc3)nn2)cc1` the Ki (Carbonic anhydrase 1) was 392 nM, the Ki (Carbonic anhydrase 9) was 25.9 nM and the Ki (Carbonic anhydrase 12) was 6 nM.

`CCCCCc1ccc(-c2cn(-c3ccc(S(N)(=O)=O)cc3)nn2)cc1` was tested, and the Ki (Carbonic anhydrase 9) was 5 nM.

For `NS(=O)(=O)c1ccc(-n2cc(CCBr)nn2)cc1`, the Ki (Carbonic anhydrase 9) was 6.9 nM.

Work on `NS(=O)(=O)c1ccc(-n2cc(CCCCl)nn2)cc1` yielded a Ki (Carbonic anhydrase 9) of 6.2 nM.

`CC(C)(C)OC(=O)NCc1cn(-c2ccc(S(N)(=O)=O)cc2)nn1` was tested, and the Ki (Carbonic anhydrase 9) was 10.5 nM.

Work on `NS(=O)(=O)c1c(F)c(F)c(-n2cc(CCCCCl)nn2)c(F)c1F` yielded a Ki (Carbonic anhydrase 9) of 4.5 nM.

Compound `NCc1cn(-c2ccc(S(N)(=O)=O)cc2)nn1` has a Ki (Carbonic anhydrase 9) of 12.1 nM.

In the case of `Cc1ccc(-c2cn(-c3ccc(S(N)(=O)=O)cc3)nn2)cc1`, the Ki (Carbonic anhydrase 1) is reported as 368 nM and the Ki (Carbonic anhydrase 12) is reported as 3.6 nM.
